The target of test [1] is Acetylcholinesterase (Homo sapiens, UniProt P22303). The test can be described thus: Inhibition of recombinant human AChE using acetylthiocholine iodide as substrate preincubated for 5 mins before substrate addition by Ellman's method. Background: Ellman's reagent forms a yellow product with free thiols.
The next test concerns the target Cholinesterase (Equus caballus, UniProt P81908).
The target of test [2] is Acetylcholinesterase (Electrophorus electricus, UniProt O42275).
Description: Inhibition of electric eel AChE using acetylthiocholine iodide as substrate preincubated for 5 mins before substrate addition by Ellman's method
A short description of test [3]: Selectivity ratio of IC50 for horse serum BChE to IC50 for electric eel AChE.

Broadly, the IC50 is the concentration needed to halve the response being measured.

Sequence of Acetylcholinesterase (Electrophorus electricus, UniProt O42275) (O42275 whole entry): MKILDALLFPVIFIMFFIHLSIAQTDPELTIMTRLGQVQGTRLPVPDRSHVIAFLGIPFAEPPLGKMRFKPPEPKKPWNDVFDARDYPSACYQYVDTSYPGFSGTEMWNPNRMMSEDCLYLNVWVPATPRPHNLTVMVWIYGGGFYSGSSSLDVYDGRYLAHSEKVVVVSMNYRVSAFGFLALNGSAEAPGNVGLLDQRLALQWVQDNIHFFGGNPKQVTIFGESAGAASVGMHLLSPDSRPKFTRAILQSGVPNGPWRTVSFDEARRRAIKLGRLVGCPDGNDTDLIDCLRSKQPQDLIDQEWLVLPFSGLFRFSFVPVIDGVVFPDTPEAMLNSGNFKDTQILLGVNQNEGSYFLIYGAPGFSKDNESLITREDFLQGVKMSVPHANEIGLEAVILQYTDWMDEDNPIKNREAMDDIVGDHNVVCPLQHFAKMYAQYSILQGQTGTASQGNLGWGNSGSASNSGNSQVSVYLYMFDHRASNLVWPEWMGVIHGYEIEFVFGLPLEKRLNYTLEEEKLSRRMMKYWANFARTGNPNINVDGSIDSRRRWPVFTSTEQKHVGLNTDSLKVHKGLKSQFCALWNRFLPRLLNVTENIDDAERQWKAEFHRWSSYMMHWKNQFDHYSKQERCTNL
Sequence of Cholinesterase (P81908 whole entry): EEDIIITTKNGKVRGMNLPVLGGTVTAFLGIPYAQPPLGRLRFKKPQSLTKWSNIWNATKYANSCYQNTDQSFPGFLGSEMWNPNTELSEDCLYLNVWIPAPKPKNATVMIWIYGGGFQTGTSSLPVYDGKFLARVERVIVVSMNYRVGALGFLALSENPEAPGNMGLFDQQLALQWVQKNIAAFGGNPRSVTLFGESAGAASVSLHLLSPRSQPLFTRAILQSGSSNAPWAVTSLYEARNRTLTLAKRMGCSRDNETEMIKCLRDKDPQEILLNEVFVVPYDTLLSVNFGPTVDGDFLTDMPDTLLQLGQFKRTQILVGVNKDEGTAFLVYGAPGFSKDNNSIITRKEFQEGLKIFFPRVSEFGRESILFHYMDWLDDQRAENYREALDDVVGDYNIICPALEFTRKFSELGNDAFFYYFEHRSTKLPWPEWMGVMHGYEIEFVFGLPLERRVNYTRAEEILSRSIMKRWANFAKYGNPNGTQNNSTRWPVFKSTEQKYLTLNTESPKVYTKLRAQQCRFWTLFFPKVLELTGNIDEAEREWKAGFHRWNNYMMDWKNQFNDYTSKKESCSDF
Sequence of Acetylcholinesterase (Homo sapiens, UniProt P22303) (P22303 whole entry): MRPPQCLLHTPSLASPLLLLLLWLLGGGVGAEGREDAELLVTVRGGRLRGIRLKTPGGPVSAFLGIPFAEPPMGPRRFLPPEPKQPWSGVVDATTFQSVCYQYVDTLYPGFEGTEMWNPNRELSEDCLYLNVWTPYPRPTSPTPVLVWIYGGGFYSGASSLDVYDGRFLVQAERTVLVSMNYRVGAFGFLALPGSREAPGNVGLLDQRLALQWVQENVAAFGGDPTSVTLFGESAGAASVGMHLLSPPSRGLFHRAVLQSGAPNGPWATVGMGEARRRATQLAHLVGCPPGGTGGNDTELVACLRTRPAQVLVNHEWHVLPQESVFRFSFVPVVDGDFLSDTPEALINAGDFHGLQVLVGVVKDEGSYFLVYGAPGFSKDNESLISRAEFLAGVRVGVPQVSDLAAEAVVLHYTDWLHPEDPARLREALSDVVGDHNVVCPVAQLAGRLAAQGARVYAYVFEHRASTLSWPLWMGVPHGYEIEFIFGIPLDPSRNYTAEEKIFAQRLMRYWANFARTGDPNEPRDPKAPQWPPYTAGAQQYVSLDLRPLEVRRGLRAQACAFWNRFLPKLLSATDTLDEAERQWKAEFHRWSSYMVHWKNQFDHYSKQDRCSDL

For `Clc1ccc2nc(-c3ccc(OCCN4CCCCC4)cc3)[nH]c2c1`, the IC50 on Acetylcholinesterase [1] is 0.13 µM; against Cholinesterase, over 100 µM; at Acetylcholinesterase [2] it was 0.61 µM.
For `Clc1ccc2[nH]c(-c3ccc(OCCN4CCOCC4)cc3)nc2c1`, the IC50 at Acetylcholinesterase [1] is 9.73 µM; against Cholinesterase, over 100 µM; at Acetylcholinesterase [2], 11.1 µM.
In the case of `CC(C)N(CCOc1ccc(-c2nc3ccccc3[nH]2)cc1)C(C)C`, in test [3], the Ratio IC50 was found to be 3.5. In addition, the results for the IC50 on Acetylcholinesterase [1], against Cholinesterase and against Acetylcholinesterase [2] were 23.4 µM, 4.11 µM and 1.19 µM, respectively.
With `Cc1ccc2[nH]c(-c3ccc(OCCN4CCCC4)cc3)nc2c1`, the Ratio IC50 in test [3] is 2.4. Moreover, the IC50 was 0.4 µM at Acetylcholinesterase [1], 3.24 µM against Cholinesterase and 1.34 µM against Acetylcholinesterase [2].
With `Oc1ccc(-c2nc3cc(Cl)ccc3[nH]2)cc1`, the Ratio IC50 in test [3] was found to be 0.6. The results for the IC50 at Acetylcholinesterase [1], on Cholinesterase and at Acetylcholinesterase [2] were over 100 µM, 8.52 µM and 14.6 µM, respectively.
Regarding `CCN(CC)CCOc1ccc(-c2nc3ccc(C)cc3[nH]2)cc1`, the IC50 is 51 µM at Acetylcholinesterase [1], 6.48 µM against Cholinesterase and 2.34 µM against Acetylcholinesterase [2].
The like results for `CC(C)N(CCOc1ccc(-c2nc3ccc(Cl)cc3[nH]2)cc1)C(C)C` were, in that order, 3.68 µM, 7.44 µM and 0.58 µM.
As for `CN(C)CCOc1ccc(-c2nc3ccc(Cl)cc3[nH]2)cc1`, the half-maximal inhibitory concentration (IC50) at Acetylcholinesterase [1] is 8.02 µM; against Cholinesterase, over 100 µM; on Acetylcholinesterase [2] it was 2.68 µM.
On to `CCN(CC)CCOc1ccc(-c2nc3cc(Cl)ccc3[nH]2)cc1`, for which the IC50 on Acetylcholinesterase [1] is 8.75 µM; against Cholinesterase it was over 100 µM; at Acetylcholinesterase [2] it was 3.5 µM.
For the compound `Cc1ccc2[nH]c(-c3ccc(OCCN4CCCCC4)cc3)nc2c1`, in test [3], the Ratio IC50 turned out to be 1.6. Further, the IC50 at Acetylcholinesterase [1] turned out to be 0.39 µM; on Cholinesterase, 1.37 µM; against Acetylcholinesterase [2], 0.84 µM.
As for `Cc1ccc2[nH]c(-c3ccc(OCCN4CCOCC4)cc3)nc2c1`, the IC50 at Acetylcholinesterase [1] is 12.9 µM; on Cholinesterase it was over 100 µM; against Acetylcholinesterase [2], over 100 µM.
For `CN(C)CCOc1ccc(-c2nc3ccccc3[nH]2)cc1`, in test [3], the Ratio IC50 came to 0.4. The values for the IC50 at Acetylcholinesterase [1], against Cholinesterase and against Acetylcholinesterase [2] were 10.7 µM, 5.87 µM and 13.1 µM, respectively.
On to `Oc1ccc(-c2nc3ccccc3[nH]2)cc1`, for which the Ratio IC50 in test [3] was determined as 0.3. Further, the values for the concentration for half-maximal inhibition (IC50) on Acetylcholinesterase [1], on Cholinesterase and on Acetylcholinesterase [2] were over 100 µM, 4.59 µM and 17.3 µM, respectively.
As for `c1ccc2[nH]c(-c3ccc(OCCN4CCOCC4)cc3)nc2c1`, the IC50 at Acetylcholinesterase [1] is over 100 µM; on Cholinesterase, over 100 µM; on Acetylcholinesterase [2] it was 18.8 µM.
As to `CC(C)N(CCOc1ccc(-c2nc3cc(Cl)ccc3[nH]2)cc1)C(C)C`, the Ratio IC50 in test [3] was found to be 12.8.
For the compound `c1ccc2[nH]c(-c3ccc(OCCN4CCCCC4)cc3)nc2c1`, the Ratio IC50 in test [3] came to 2.3. Also, the IC50 is 1.03 µM on Acetylcholinesterase [1], 2.45 µM on Cholinesterase and 1.08 µM against Acetylcholinesterase [2].
On to `Cc1ccc2[nH]c(-c3ccc(O)cc3)nc2c1`, for which the Ratio IC50 in test [3] worked out at 0.3. The IC50 is over 100 µM at Acetylcholinesterase [1], 4.67 µM on Cholinesterase and 15.9 µM against Acetylcholinesterase [2].
As to `Clc1ccc2[nH]c(-c3ccc(OCCN4CCCC4)cc3)nc2c1`, in test [3], the Ratio IC50 amounted to 1.1. Further, the IC50 was determined as 1.4 µM on Acetylcholinesterase [1], 3.42 µM on Cholinesterase and 3.24 µM against Acetylcholinesterase [2].
For the compound `CCN(CC)CCOc1ccc(-c2nc3cc(C)ccc3[nH]2)cc1`, the Ratio IC50 in test [3] is 2.8.
`Cc1ccc2[nH]c(-c3ccc(OCCN(C)C)cc3)nc2c1`: the IC50 on Acetylcholinesterase [1] was 12.3 µM; on Cholinesterase, over 100 µM; against Acetylcholinesterase [2], 5.06 µM.
Regarding `c1ccc2[nH]c(-c3ccc(OCCN4CCCC4)cc3)nc2c1`, in test [3], the Ratio IC50 was determined as 7.6. Moreover, the IC50 at Acetylcholinesterase [1] was determined as 2.13 µM; at Cholinesterase, 23 µM; on Acetylcholinesterase [2], 3.05 µM.
Regarding `CCN(CC)CCOc1ccc(-c2nc3ccccc3[nH]2)cc1`, the Ratio IC50 in test [3] was determined as 0.3. Also, the half-maximal inhibitory concentration (IC50) is over 100 µM at Acetylcholinesterase [1], 5.06 µM against Cholinesterase and 15.6 µM against Acetylcholinesterase [2].

(Values after ChEMBL document CHEMBL2413025, “Synthesis, biological activity and molecular modeling studies on 1H-benzimidazole derivatives as acetylcholinesterase inhibitors” (Bioorg Med Chem, 2013).)
